Where “and” joins values, the source holds several entries; their conditions need not be identical. Identical values can stand only once. Entries after “also recorded” stand apart in the source; their conditions may differ. Like-named read-outs stand apart in the source and are kept apart here.
What was measured:
human sperm [1] = test system: human sperm
Experimental: (§1) Sperm were isolated from the seminal plasma as previously described in Brown et al., 1995. The sperm pellet was resuspended in phosphate buffered saline (PBS), pH=7.4, and divided into 4 aliquots. Each aliquot (equal sperm concentrations) was incubated at 37° C. in PBS with H2O2 concentrations of 0, 10, 50, and 100 μM for 15 min and 1 hr. All aliquots were divided into 2 portions. One portion was used to determine LPO. The remaining portion was centrifuged at 1500 g for 15 min. at room temperature, the sperm in the pellet resuspended and analyzed in the HSAA.

sperm = conditions: comet assay; cited from earlier work
human sperm [2] = test system: human sperm; remark: listed apart in the source
Experimental: as §1
The HSAA was performed as described by Brown et al. 1995. Briefly, sperm are washed and permeabilized using lysolecithine.
(§2) In a micro-centrifuge tube, the reaction mix was prepared; 8 μl of sperm suspension (200,000 sperm) was added to 100 μLof frog egg extract that contained 8 μl of ^3H-TTP (8 μCi). At 5 and 15 min, and 2 and 3 hr incubation times in the egg extract, 5 μl aliquots were taken, wet mounts prepared, and phase contrast microscopy used to determine the percentage of sperm that were fully decondensed and recondensed, respectively, scoring 50 nuclei per slide. At the 5 and 15 min, and 2 and 3 hr time points, 25 μl aliquots of the reaction mix was removed and mixed with 75 μl PBS. Two 50 μl cytopreps were made for each aliquote as described by Brown et al., 1992. The dried cytopreps were fixed in one part acetic acid, and three parts cold methanol, and Giemsa stained for 1 hr followed by a 10 min wash in Giemsa buffer. Slides were examined using light microscopy and analyzed using Metamorph software. Autoradiography was performed using cytoprep slides as described by Brown et al. 1995.
Sperm chromatin decondensation and nuclear recondensation were evaluated in sperm exposed to increasing concentrations of H2O2 for 15 min and 1 hr using the HSAA. Sperm were analyzed at different incubation times in the egg extract using the image analysis Methamorph software system. The sperm nuclear activation was scored in 5 categories (FIG. 2): 1) full decondensation: sperm diameter 25-30 μm (FIG. 2C), 2) partial decondensation: sperm diameter <25 μm (FIG. 2B), 3) non-decondensed (FIG. 2A), 4) hyperdecondensed: sperm diameter >(25-30 μm) [FIGS. 2b and c], and 5) full recondensation (FIGS. 2D and E).

human sperm [3] = test system: human sperm; remark: listed apart in the source
Experimental: Thymidine incorporation into sperm was scored as follows: unlabeled (less than 5 black granules), medium label (from 5 to 25 black granules), and heavy label (more than 25 black granules). Each value is the mean±SD. […] (5a and 5b) ^3H-TTP incorporation after a 5 min incubation in the egg extract.
as §2
The DNA synthesis was determined by autoradiography as previously described in Materials and Methods.

[4] = 10 μM H2O2, 15 min and 1 hr exposures, 5 min incubation in egg extract
[5] = 10 μM H2O2, 15 min and 1 hr exposures, 15 min incubation in egg extract
[6] = 50 μM H2O2, 15 min exposure, 2 and 3 hr incubation in egg extract (combined)
[7] = 50 μM H2O2, 15 min exposure, 5 min incubation in egg extract
[8] = 50 μM H2O2, 15 min exposure, 15 min incubation in egg extract
[9] = 50 μM H2O2, 1 hr exposure, 2 and 3 hr incubation in egg extract (combined)
[10] = 50 μM H2O2, 1 hr exposure, 5 min incubation in egg extract
[11] = 50 μM H2O2, 1 hr exposure, 15 min incubation in egg extract
[12] = 100 μM H2O2, 15 min and 1 hr exposures, 5 min incubation in egg extract
[13] = 100 μM H2O2, 15 min exposure, 2 and 3 hr incubation in egg extract (combined)
[14] = 100 μM H2O2, 15 min exposure, 5 min incubation in egg extract
[15] = 100 μM H2O2, 15 min exposure, 15 min incubation in egg extract
[16] = 100 μM H2O2, 1 hr exposure, 2 and 3 hr incubation in egg extract (combined)
[17] = 100 μM H2O2, 1 hr exposure, 5 min incubation in egg extract
[18] = 100 μM H2O2, 1 hr exposure, 15 min incubation in egg extract
[19] = 50 μM H2O2, 15 min exposure, 3 hr incubation in egg extract
[20] = 50 μM H2O2, 1 hr exposure, 2 hr incubation in egg extract
[21] = 50 μM H2O2, 1 hr exposure, 3 hr incubation in egg extract
[22] = 100 μM H2O2, 15 min exposure, 3 hr incubation in egg extract
[23] = 100 μM H2O2, 1 hr exposure, 2 hr incubation in egg extract
[24] = 100 μM H2O2, 1 hr exposure, 3 hr incubation in egg extract

## OO [H2O2, hydrogen peroxide]
Human sperm [1]; 10, 50 and 100 μM H2O2, 1 hr exposure
  lipid peroxidation (MDA and hydroxyalkenals), means compared to the untreated control sperm: significantly different
Human sperm [1]; 50 and 100 μM H2O2, 15 min exposure
  lipid peroxidation (MDA and hydroxyalkenals), means compared to the untreated control sperm: significantly different
sperm
  H2O2 concentration at which induction of DNA fragmentation was significant: 200 µM
Human sperm [2]; 10 μM H2O2, 15 min and 1 hr exposure, 2 and 3 hr incubation in egg extract (combined)
  recondensed sperm: 98±2%
Human sperm [2]; [4]
  partially decondensed sperm: Approximately 30%
  recondensed sperm: No recondensed sperm were observed
  sperm showing no decondensation: 35-40%
Human sperm [2]; [5]
  fully decondensed sperm: Approximately 94%
Human sperm [2]; 10 μM H2O2, 15 min exposure, 5 min incubation in egg extract
  fully decondensed sperm: Approximately 28±4%
Human sperm [2]; 10 μM H2O2, 15 min exposure, 15 min incubation in egg extract
  recondensed sperm: No recondensed sperm were observed
Human sperm [2]; 10 μM H2O2, 1 hr exposure, 5 min incubation in egg extract
  fully decondensed sperm: ~30±6%
Human sperm [2]; 10 μM H2O2, both time points (15 min and 1 hr exposure), 15 min incubation in egg extract
  non-decondensed sperm: Approximately 5%
Human sperm [2]; 10 μM H2O2, 2 and 3 hr incubation in egg extract (combined)
  hyper-decondensed sperm: No sperm were hyper-decondensed
Human sperm [2]; 10 μM H2O2, 5 min incubation in egg extract
  hyperdecondensed sperm: No sperm were hyperdecondensed
Human sperm [2]; 10 μM H2O2, 15 min incubation in egg extract
  hyperdecondensed sperm: No sperm were hyperdecondensed
Human sperm [2]; 50 μM H2O2, 15 min and 1 hr exposures, 5 min incubation in egg extract
  partially decondensed sperm: Approximately 1%
Human sperm [2]; [6]
  hyper-decondensed sperm: 35.2%
  recondensed sperm: 66±2.3%
Human sperm [2]; [7]
  fully decondensed sperm: 43.3±3.7%
  hyperdecondensed sperm: 38.4%
  non-decondensed sperm: 15±3%
  recondensed sperm: No recondensed sperm were observed
Human sperm [2]; [8]
  fully decondensed sperm: 53±3%
  hyperdecondensed sperm: 45.2%
  recondensed sperm: No recondensed sperm were observed
Human sperm [2]; [9]
  hyper-decondensed sperm: 30±2%
  recondensed sperm: 70±3%
Human sperm [2]; [10]
  fully decondensed sperm: 46.6±6%
  hyperdecondensed sperm: 31±−4% and 31±4%
  non-decondensed sperm: 18±4%
  recondensed sperm: 5±3%
Human sperm [2]; [11]
  fully decondensed sperm: 58±2%
  hyperdecondensed sperm: 30±2%
  recondensed sperm: 10±2%
Human sperm [2]; [12]
  non-decondensed sperm: 10±2%
  partially decondensed sperm: Approximately 1%
Human sperm [2]; [13]
  hyper-decondensed sperm: 45±2%
  recondensed sperm: 57±2%
Human sperm [2]; [14]
  fully decondensed sperm: 56.6±4.7%
  hyperdecondensed sperm: 26%
  recondensed sperm: 8±2%
Human sperm [2]; [15]
  fully decondensed sperm: 48±1.5%
  hyperdecondensed sperm: 37%
  recondensed sperm: 15±3%
Human sperm [2]; [16]
  hyper-decondensed sperm: 45±3%
  recondensed sperm: 54±2%
Human sperm [2]; [17]
  fully decondensed sperm: 64.5±4.5%
  hyperdecondensed sperm: 11±4%
  recondensed sperm: 15±2%
Human sperm [2]; [18]
  fully decondensed sperm: 47±2%
  hyperdecondensed sperm: 33±3.5%
  recondensed sperm: 20±2%
Human sperm [2]; 50 and 100 μM H2O2, 3 hr incubation in egg extract
  sperm nuclei with abnormal recondensation and nuclear arrest in the hyperdecondensed state: 33-42%
Human sperm [2]; any other H2O2 concentrations (50, 100 μM) at any of the time points, 15 min incubation in egg extract
  non-decondensed sperm: no sperm were non-decondensed
Human sperm [3]; 10 μM H2O2, 15 min and 1 hr exposure, 2 and 3 hr incubations in frog egg extract
  3H-TTP incorporation: normal ^3H-TTP incorporation
Human sperm [3]; [4]
  sperm positive for 3H-TTP incorporation: No sperm were positive for ^3H-TTP incorporation; also recorded: no incorporation of ^3H-TTP
Human sperm [3]; [5]
  sperm positive for 3H-TTP incorporation: No sperm were positive for ^3H-TTP incorporation; also recorded: no incorporation of ^3H-TTP
Human sperm [3]; 10 μM H2O2, 15 min and 1 hr exposures, 2 hr incubation in egg extract
  sperm heavily labeled by 3H-TTP: 99±1%
Human sperm [3]; 10 μM H2O2, 15 min and 1 hr exposures, 3 hr incubation in egg extract
  sperm heavily labeled by 3H-TTP: 98±2%
Human sperm [3]; 50 μM H2O2, 15 min exposure (first of '50 and 100 μM for 15 min and 1 hr, respectively'), 2 hr incubation in egg extract
  sperm with medium 3H-TTP labeling: approximately 14.5±4%
Human sperm [3]; [7]
  sperm heavily labeled by 3H-TTP: 10±3.5%
  sperm with medium 3H-TTP labeling: 18±3.5%
Human sperm [3]; [8]
  sperm heavily labeled by 3H-TTP: 10±2%
  sperm with medium 3H-TTP labeling: approximately 20±3%
Human sperm [3]; 50 μM H2O2, 15 min exposure, 2 hr incubation in egg extract
  sperm heavily labeled by 3H-TTP: 85±5%
Human sperm [3]; [19]
  sperm heavily labeled by 3H-TTP: approximately 78±6%
  sperm with medium 3H-TTP labeling: approximately 16.5±2%
Human sperm [3]; [10]
  sperm heavily labeled by 3H-TTP: 28±2%
  sperm with medium 3H-TTP labeling: 36±3%
Human sperm [3]; [11]
  sperm heavily labeled by 3H-TTP: 17.5±7.5%
  sperm with medium 3H-TTP labeling: Approximately 21±5%
Human sperm [3]; [20]
  sperm heavily labeled by 3H-TTP: 56.5±3%
  sperm with medium 3H-TTP labeling: Approximately 36±2%
Human sperm [3]; [21]
  sperm heavily labeled by 3H-TTP: Approximately 75±3%
  sperm with medium 3H-TTP labeling: Approximately 25±3%
Human sperm [3]; 100 μM H2O2 (second of '50 and 100 μM for 15 min and 1 hr, respectively'), 2 hr incubation in egg extract
  sperm with medium 3H-TTP labeling: ~43.5±5%
Human sperm [3]; [14]
  sperm heavily labeled by 3H-TTP: 15±5%
  sperm with medium 3H-TTP labeling: Approximately 25±5%
Human sperm [3]; [15]
  sperm heavily labeled by 3H-TTP: 50±5%
  sperm with medium 3H-TTP labeling: ~30±10%
Human sperm [3]; 100 μM H2O2, 15 min exposure, 2 hr incubation in egg extract
  sperm heavily labeled by 3H-TTP: Approximately 64±2%
Human sperm [3]; [22]
  sperm heavily labeled by 3H-TTP: ~85±5%
  sperm with medium 3H-TTP labeling: ~14.5±3%
Human sperm [3]; [17]
  sperm heavily labeled by 3H-TTP: 31±3%
  sperm with medium 3H-TTP labeling: ~48±2%
Human sperm [3]; [18]
  sperm heavily labeled by 3H-TTP: 45±9%
  sperm with medium 3H-TTP labeling: ~37±9%
Human sperm [3]; [23]
  sperm heavily labeled by 3H-TTP: ~71±3%
  sperm with medium 3H-TTP labeling: ~28.5±2.5%
Human sperm [3]; [24]
  sperm heavily labeled by 3H-TTP: ~60±4%
  sperm with medium 3H-TTP labeling: ~40±4%

— US20090053722A1, “SDAD ASSAY AND USES THEREOF” (priority 2007, published 2009)
